Data from patent US8846639B2, “Oligomeric compounds comprising bicyclic nucleosides and having reduced toxicity” (Isis Pharmaceutical, Inc., priority 2008, dated 2014).

Tests used:
[1] = Liver, kidney, spleen weights and body weight gain (Example 13); assay type: in vivo, mice; details: for Kidney weight / Liver weight / Spleen weight: saline = 1.00; for Body weight gain: saline = 1.05
Method: (§1) In accordance with the present invention, oligomeric compounds were synthesized and tested for their ability to reduce PTEN expression in vivo at doses of 20 and 60 mg/kg. Six week old male Balb/c mice (Jackson Laboratory, Bar Harbor, Me.) were administered a single intraperitoneal (i.p) injection at either 20 or 60 mg/kg of 4′-CH2—O-2′ BNA 2-10-2 gapped oligomers ([…] and 392745). The 4′-CH2—O-2′ BNA gapped oligomer, 392745, contains non-methylated pyrimidine in the wings. The 4′-CH2—O-2′ BNA gapped oligomer, 392063, contains methylated pyrimidine in the wings (i.e. each cytosine residues in the 4′-CH2—O-2′ BNA wings of 392745 are replaced with 5-methylcytosines, while the thymidine residues in the 4′-CH2—O-2′ BNA wings of 392745 are replaced with 5-methyl thymidines). All internucleoside linkages are phosphorothioates, nucleosides not followed by a subscript are βD-2′-deoxyribonucleosides, nucleosides followed by a subscript 1 are 4′-CH2—O-2′ modified bicyclic nucleosides and ^MeC indicates a 5′-methyl cytosine nucleoside.
The effects on liver, kidney, spleen weights and body weight gain were also determined.

[2] = test system: PTEN mRNA; assay: PTEN mRNA levels in liver, real-time PCR (Example 13 in vivo study); details: Balb/c mice, 72 h, normalized to saline control
Method: as §1
(§2) Each dose group consisted of four animals. The mice were sacrificed 72 hours following the final administration to determine the PTEN mRNA levels in liver using real-time PCR and RIBOGREEN® RNA quantification reagent (Molecular Probes, Inc. Eugene, Oreg.) according to standard protocols. PTEN mRNA levels were determined relative to total RNA (using Ribogreen), prior to normalization to saline-treated control. Results are listed below as the average % inhibition of mRNA expression for each treatment group, normalized to saline-injected control. Resulting dose-response curves were used to determine the IC50. Tm's were assessed in 100 mM phosphate buffer, 0.1 mM EDTA, pH 7, at 260 nm using 4 μM modified oligomers and 4 μM complementary RNA.

[3] = Liver transaminase (ALT) levels in serum (Example 14); assay type: in vivo, mice; details: for ALT levels: serum, saline = 24
Method: (§3) Six week old male Balb/c mice (Jackson Laboratory, Bar Harbor, Me.) were administered a single intraperitoneal (i.p) injection with 4′-CH2—O-2′ BNA containing oligomers (392745 and 392063) and 6(S)-4′-CH(CH3)—O-2′ BNA containing oligomers (392749 and 411847) at a does of 3.2, 10, 32, 66 and 100 mg/kg. Oligomers 392063 and 411847 contain LNA nucleosides with methylated pyrimidines, and oligomers 392745 and 392749 contain LNA nucleosides with non-methylated pyrimidines in the wings. All intemucleoside linkages are phosphorothioates, nucleosides not followed by a subscript are βD-2′-deoxyribonucleosides, nucleosides followed by a subscript 1 are 4′-CH2—O-2′ modified bicyclic nucleosides, nucleosides followed by a subscript S are 6(S)-4′-CH(CH3)—O-2′ modified bicyclic nucleosides wherein S indicates the configuration at the 6 carbon atom and ^MeC indicates a 5′-methyl cytosine nucleoside.
Liver transaminase levels, alanine aminotranferease (ALT) and aspartate aminotransferase (AST), in serum were also measured relative to saline injected mice. Increases in the transaminase levels can indicate hepatotoxicity. The approximate liver transaminase levels are listed below.

[4] = test system: complementary RNA; assay: Tm of modified oligomers with complementary RNA; assay type: binding; details: 100 mM phosphate buffer, 0.1 mM EDTA, pH 7, 260 nm, 4 μM oligomer and 4 μM complementary RNA
Method: as §2

[5] = test system: PTEN mRNA; assay: PTEN mRNA levels in liver, real-time PCR (Example 14 in vivo study); design: species or system mice; details: for PTEN mRNA levels (% inhibition): liver, 72 h
Method: as §3
Each dose group consisted of four animals. The mice were sacrificed 72 hours following the final administration to determine the PTEN mRNA levels in liver using real-time PCR and RIBOGREEN® RNA quantification reagent (Molecular Probes, Inc. Eugene, Oreg.) according to standard protocols. PTEN mRNA levels were determined relative to total RNA (using Ribogreen), prior to normalization to saline-treated control. Results are listed below as the average % inhibition of mRNA expression for each treatment group, normalized to saline-injected control.
Estimated ED50 concentrations for each oligomers were calculated using Graphpad Prism. ED50 is the dose at which 50% mRNA reducation is observed.

[6] = Liver transaminase levels (ALT, AST) in serum (Example 13); assay type: in vivo, mice; details: for ALT / AST: serum; for ALT: saline = 24; for AST: saline = 68
Method: as §1
Liver transaminase levels, alanine aminotranferease (ALT) and aspartate aminotransferase (AST), in serum were also measured relative to saline injected mice. Increases in the transaminase levels can indicate hepatotoxicity. […] The ALT and AST levels measured for mice treated with 60 mg/kg does of 392745 were decreased about 4.5-fold and 3 fold as compared to 392063 treatment. The approximate liver transaminase levels are listed below.

Substance: C1U1TAGCACTGGCC1U1 [ISIS 392745]
- Kidney weight ([1]; 20 mg/kg): 1.02
- Liver weight ([1]; 20 mg/kg): 1.22
- Spleen weight ([1]; 20 mg/kg): 1.14
- Body weight gain ([1]; 20 mg/kg): 1.06
- Kidney weight ([1]; 60 mg/kg): 1.02
- Liver weight ([1]; 60 mg/kg): 1.25
- Spleen weight ([1]; 60 mg/kg): 1.12
- Body weight gain ([1]; 60 mg/kg): 1.01
- liver, kidney, spleen weights or body weight gain compared to saline ([1]; normal mice, 20 and 60 mg/kg): did not substantially alter
- % inhibition (PTEN mRNA expression in liver) ([2]; 20 mg/kg single i.p.): 89%
- % inhibition (PTEN mRNA expression in liver) ([2]; 60 mg/kg single i.p.): 92%
- ALT levels ([3]; 3.2 mg/kg): 30 IU/L
- ALT levels ([3]; 10 mg/kg): 20 IU/L
- ALT levels ([3]; 32 mg/kg): 13 IU/L
- ALT levels ([3]; 66 mg/kg): 59 IU/L
- ALT level decrease as compared to 392063 treatment ([3]; 100 mg/kg): about 3.5 fold
- ALT levels ([3]; 100 mg/kg): 3842 IU/L
- ALT levels with respect to saline treated control ([3]; lower doses (3.2, 10, 32 and 66 mg/kg)): not elevated to a level indicative of hepatotoxicity
- Tm [4]: 58.6 °C
- PTEN mRNA levels (% inhibition) ([5]; 3.2 mg/kg single i.p.): 0%
- PTEN mRNA levels (% inhibition) ([5]; 10 mg/kg single i.p.): 58%
- PTEN mRNA levels (% inhibition) ([5]; 32 mg/kg single i.p.): 90%
- PTEN mRNA levels (% inhibition) ([5]; 66 mg/kg single i.p.): 90%
- PTEN mRNA levels (% inhibition) ([5]; 100 mg/kg single i.p.): 93%
- ED50 ([5]; estimated, Graphpad Prism, dose at which 50% mRNA reduction is observed): 9 mg/kg
- transaminase levels with respect to saline treated control ([6]; 20 mg/kg): not elevated to a level indicative of hepatotoxicity
- ALT ([6]; 20 mg/kg single i.p.): 29 IU/L
- AST ([6]; 20 mg/kg single i.p.): 81 IU/L
- ALT level decrease as compared to 392063 treatment ([6]; 60 mg/kg): about 4.5 fold
- AST level decrease as compared to 392063 treatment ([6]; 60 mg/kg): ~3 fold
- ALT ([6]; 60 mg/kg single i.p.): 108 IU/L
- AST ([6]; 60 mg/kg single i.p.): 202 IU/L
